From PMC10660610 (Scientific Reports, 2023) come the findings set out here.

Format in all cases: binding
Test [1] deals with T1, DOR (delta-opioid receptor) (Rattus norvegicus, UniProt P33533).
T1 construct: gene Oprd1; native full-length receptor in rat brain membrane homogenate
The note with it: 50 mM Tris-HCl pH 7.4, 35 °C, 45 min; read-out: DOR^a / Ki ± S.E.M.

For test [2], the target named is T2, KOR (kappa-opioid receptor) (Cavia porcellus, UniProt P41144).
T2 construct: gene OPRK1; native full-length receptor in guinea pig brain membrane homogenate
T2 sequence (P41144 whole entry): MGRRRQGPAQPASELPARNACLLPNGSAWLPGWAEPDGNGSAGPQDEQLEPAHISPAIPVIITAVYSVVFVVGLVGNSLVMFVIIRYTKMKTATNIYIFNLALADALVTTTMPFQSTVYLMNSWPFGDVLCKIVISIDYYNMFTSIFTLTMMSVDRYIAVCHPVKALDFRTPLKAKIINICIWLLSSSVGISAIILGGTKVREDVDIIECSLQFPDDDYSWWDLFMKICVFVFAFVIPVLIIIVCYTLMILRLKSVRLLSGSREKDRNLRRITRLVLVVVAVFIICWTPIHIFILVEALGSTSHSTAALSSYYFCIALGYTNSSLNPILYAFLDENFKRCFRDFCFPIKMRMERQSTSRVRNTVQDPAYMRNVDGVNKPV
The note with it: 50 mM Tris-HCl pH 7.4, 25 °C, 30 min; read-out: KOR^b / Ki ± S.E.M.
Source text: [3H]HS665 displacement, guinea pig brain membranes on KOR (kappa-opioid receptor)

In test [3] the target is T3, MOR (mu-opioid receptor) (Rattus norvegicus, UniProt P33535).
T3 construct: gene Oprm1; native full-length receptor in rat brain membrane homogenate
T3 sequence (P33535 whole entry): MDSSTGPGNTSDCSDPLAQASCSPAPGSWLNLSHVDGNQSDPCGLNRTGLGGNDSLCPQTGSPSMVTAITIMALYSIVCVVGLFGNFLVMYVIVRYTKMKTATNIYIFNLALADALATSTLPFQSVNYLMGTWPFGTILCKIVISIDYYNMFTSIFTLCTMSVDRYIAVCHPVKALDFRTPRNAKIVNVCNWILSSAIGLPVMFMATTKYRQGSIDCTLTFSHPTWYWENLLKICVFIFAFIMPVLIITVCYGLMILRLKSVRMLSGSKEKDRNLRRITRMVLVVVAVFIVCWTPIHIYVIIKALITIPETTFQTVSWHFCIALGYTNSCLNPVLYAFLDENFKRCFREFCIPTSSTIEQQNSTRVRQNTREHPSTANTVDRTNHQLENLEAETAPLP
The note with it: 50 mM Tris-HCl pH 7.4, 35 °C, 45 min; read-out: MOR^a / Ki ± S.E.M.

Some results are limits rather than exact numbers.

T1 sequence (P33533 whole entry): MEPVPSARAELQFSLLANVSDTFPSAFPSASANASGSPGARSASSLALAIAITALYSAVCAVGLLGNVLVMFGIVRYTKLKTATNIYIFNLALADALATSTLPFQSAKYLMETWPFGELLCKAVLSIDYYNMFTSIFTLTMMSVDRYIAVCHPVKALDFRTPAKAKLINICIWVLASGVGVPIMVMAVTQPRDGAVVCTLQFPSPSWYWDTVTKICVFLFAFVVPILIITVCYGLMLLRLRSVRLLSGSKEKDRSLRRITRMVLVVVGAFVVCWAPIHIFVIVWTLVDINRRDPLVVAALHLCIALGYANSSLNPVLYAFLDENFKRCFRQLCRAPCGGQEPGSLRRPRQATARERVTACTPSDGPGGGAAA

Turning to `Oc1ccc2c3c1O[C@H]1[C@@H](O)C=C[C@H]4[C@@H](C2)N(CCN2CCOCC2)CC[C@@]341` [9a], the Ki in test [1] was determined as 25.3 ± 1.5 nM; in test [2] it was 20.3 ± 4.2 nM; in test [3], 389 ± 17 nM.

Regarding `Oc1ccc2c3c1O[C@H]1[C@@H](O)C=C[C@H]4[C@@H](C2)N(CCN2CCCCC2)CC[C@@]341` [9b], the Ki was 44.9 ± 7.2 nM in test [1], 138 ± 42.3 nM in test [2] and 436 ± 18.8 nM in test [3].

Consider `Oc1ccc2c3c1O[C@H]1[C@@H](O)C=C[C@H]4[C@@H](C2)N(CCN2CCCC2)CC[C@@]341` [9c], for which the Ki in test [1] was 34.1 ± 7.1 nM; in test [2] it was 6.9 ± 4.6 nM; in test [3] it was 62.3 ± 2.6 nM.

As to `O=C(CN1CC[C@]23c4c5ccc(O)c4O[C@H]2[C@@H](O)C=C[C@H]3[C@H]1C5)N1CCOCC1` [10a], the Ki in test [2] came out at 3.6 ± 1.9 nM; in test [3] it was 394 ± 186 nM.

With `O=C(CN1CC[C@]23c4c5ccc(O)c4O[C@H]2[C@@H](O)C=C[C@H]3[C@H]1C5)N1CCCCC1` [10b], the Ki in test [1] was greater than 10000 nM; in test [3], 1500 ± 664 nM.

As to `O=C(CN1CC[C@]23c4c5ccc(O)c4O[C@H]2[C@@H](O)C=C[C@H]3[C@H]1C5)N1CCCC1` [10c], the Ki worked out at 839 ± 99.9 nM in test [1], 10.7 ± 7.7 nM in test [2] and 521 ± 218 nM in test [3].

Consider `O=C1CC[C@@]2(O)[C@H]3Cc4ccc(O)c5c4[C@@]2(CCN3CC(=O)N2CCOCC2)[C@H]1O5` [12a], for which the figures for the Ki in test [1] and in test [3] were 125 ± 39.6 nM and 684 ± 32.7 nM, respectively.

On to `O=C1CC[C@@]2(O)[C@H]3Cc4ccc(O)c5c4[C@@]2(CCN3CC(=O)N2CCCCC2)[C@H]1O5` [12b], for which the Ki is 1140 ± 532 nM in test [1] and 1490 ± 612 nM in test [3].
